Measurements taken from patent US20110117195A1, “METHOD FOR IMPROVING MYOCARDIAL INFARCTION BY INTRAMYOCARDIAL OR TRANSENDOCARDIAL INJECTION OF PEPTIDE NANOFIBERS” (National Cheng Kung University, priority 2009, published 2011).

How the values were obtained:
Assay type in all cases: in vivo
[1] = tested on: Lanyu mini-pig models of experimental myocardial infarction (MI); test: Immunohistological index (myocardial capillary density) after coronary artery ligation in mini-pigs
Procedure: Sexually matured Lanyu mini-pigs (about 5 months old, body weight: 21.8±3.1 kg), were divided into 3 groups: the first group is sham operation, suturing was performed without ligation (n=4); the second group is mid-left coronary artery ligation (for simulating myocardial infarction, MI) immediately followed with injection of normal saline solution (MI+NS, n=4); and the third group is mid-left coronary artery ligation immediately followed with injection of 1% peptide nanofibers solution (MI+NFs, n=5) in the entire infarcted area with a total of 2 ml NFs divided by 40 delivery sites (50 ul for each site), wherein the sequence of peptide NFs is AcN-RARADADARARADADA-NH2. Cardiac functions were assessed by echocardiography immediately after MI and together with cardiac catheterization 4 weeks later. […]

[2] = tested on: Lanyu mini-pig models of experimental myocardial infarction (MI); test: Cardiac catheterization (hemodynamic parameters) after coronary artery ligation in mini-pigs
Procedure: (§1) Sexually matured Lanyu mini-pigs (about 5 months old, body weight: 21.8±3.1 kg), were divided into 3 groups: the first group is sham operation, suturing was performed without ligation (n=4); the second group is mid-left coronary artery ligation (for simulating myocardial infarction, MI) immediately followed with injection of normal saline solution (MI+NS, n=4); and the third group is mid-left coronary artery ligation immediately followed with injection of 1% peptide nanofibers solution (MI+NFs, n=5) in the entire infarcted area with a total of 2 ml NFs divided by 40 delivery sites (50 ul for each site), wherein the sequence of peptide NFs is AcN-RARADADARARADADA-NH2. Cardiac functions were assessed by echocardiography immediately after MI and together with cardiac catheterization 4 weeks later.
(§2) In the preferred embodiment of the present invention, the peptide nanofibers solution contains peptide nanofibers which can form a biologically compatible peptide hydrogel, wherein the biologically compatible peptide hydrogel is prepared by: dissolving powders of the self-assembling peptide nanofibers in a buffer solution, such as pH 7.4 phosphate buffered saline (PBS) solution; and mixing the powders of the self-assembling peptide nanofibers with the buffer solution by sonication (100 W, 10 mins), so as to obtain a hydrogel solution of the biologically compatible peptide hydrogel (i.e. the peptide nanofibers solution), wherein the percentage of the self-assembling peptide nanofibers in the solution can be 0.1-10% by weight of the solution, preferably 0.5-5% by weight, and more preferably 1.0% by weight; and wherein the volume of the solution of the biologically compatible peptide hydrogel is preferably 0.1-10 ml, and more preferably 2 ml. In the embodiment, the percentage of the self-assembling peptide nanofibers in the solution is 1.0% by weight, and the volume of the solution of the biologically compatible peptide hydrogel is 2 ml. Meanwhile, the buffer solution (PBS) is added with monovalent metal cation compound of a concentration sufficient to promote the self-assembly of the self-assembling peptide nanofibers, wherein the monovalent metal cation is selected from the group consisting of: lithium (Li^+), sodium (Na^+) and potassium (K^+). In the embodiment, the monovalent metal cation compound is sodium […].
(§3) Besides, the pharmaceutical composition of the second and third groups is injected to a plurality of delivery sites in the entire infarcted area of myocardium tissue, respectively, wherein the number of the delivery sites is preferably ranged between 10 and 100, and more preferably 40, without limitation thereto. The plurality of delivery sites in the entire infarcted area is advantageous to increase the distribution density to support materials (e.g. peptide nanofibers). In addition, the infarcted area of myocardium tissue is preferably a mid-left portion of myocardium tissue of an injured heart with myocardial infarction, but also can be any infarcted area of the heart. The self-assembling peptide nanofibers (AcN-RARADADARARADADA-NH2) are 16 amino acids in length, but also can be 8-200 amino acids in length, and preferably 12-32 amino acids in length. […]

[3] = tested on: Lanyu mini-pig models of experimental myocardial infarction (MI); test: Echocardiography after coronary artery ligation in mini-pigs
Procedure: as §1, §2, §3

[4] = Table 1, 28 days after infarction, 2 ml intramyocardial in 40 sites
[5] = Table 1, 28 days after infarction, 2 ml intramyocardial in 40 sites, in mmHg/s (unit assumed)
[6] = one month after MI, P<0.01 vs MI+NS

“AcN-RARADADARARADADA-NH2 (Ac-RARADADARARADADA-NH2) [MI + NFs, self-assembling peptide nanofibers forming a hydrogel]” was tested. Which “M.C.D. (myocardial capillary density)” value [1, 4] did it give?
The value was 286 ± 179 number/mm^2.

And the “myocardial capillary density (M.C.D.)” value ([1]; one month after MI, in words)?
The value was “significantly increased”.

And the “Emax (maximal chamber elasticity)” value ([2]; Table 1, 28 days after infarction, 2 ml intramyocardial in 40 sites, in mmHg/mL (unit assumed))?
The value was 2.80 ± 1.43.

What about the “+dP/dt Max” value [2, 5] of the same substance?
Its value is 1458 ± 154.

What about the “−dP/dt Max” value [2, 5] of the same substance?
The value was −1850 ± 94.

And the “diastolic function and ventricular remodeling” value ([2]; one month after MI, end-diastolic and end-systolic volumes, −dP/dt Max, Emax)?
Its value is “significantly improved”.

And the “systolic function (ejection fraction and +dP/dt Max) compared to the (MI+NS) group” value ([2]; one month after MI, no significant difference)?
The value was “only modest improvement”.

What about the “E.F. (ejection fraction)” value [3, 4] of the same substance?
The value was 47 ± 8.

What about the IVS-D (thickness of inter-ventricular septum, diastolic) [3, 4] of the same substance?
The IVS-D (thickness of inter-ventricular septum, diastolic) was 0.6 ± 0.12 cm.

What about the IVS-S (thickness of inter-ventricular septum, systolic) [3, 4] of the same substance?
Its IVS-S (thickness of inter-ventricular septum, systolic) is 0.7 ± 0.13 cm.

And the thickness of inter-ventricular septum on diastolic (IVS-D) phase [3, 6]?
Its thickness of inter-ventricular septum on diastolic (IVS-D) phase is 0.6 ± 0.12 cm.

And the thickness of inter-ventricular septum on systolic (IVS-S) phase [3, 6]?
The thickness of inter-ventricular septum on systolic (IVS-S) phase was 0.7 ± 0.13 cm.
